One may read the IC50 as the concentration that gives 50% inhibition.

SMILES strings stand for the structures.

One test concerns the target JAK1 (Homo sapiens (Human), UniProt P23458). The test is described as follows: Jak Biochemical HTRF Assay, JAK1. The settings on record: HTRF biochemical assay, GST-tagged catalytic domain; top concentration tested […]; read-out: JAK1 IC50. The text has this:
(§1) Jak Biochemical HTRF Assay Protocol
(§2) Subsequent reagent additions employed an Agilent Bravo.
For orientation: In TR-FRET formats the signal depends on donor and acceptor labels being close together.

For another test, the target named is JAK2 (Homo sapiens (Human), UniProt O60674). The test is described as follows: Jak Biochemical HTRF Assay, JAK2. The conditions noted are these: HTRF biochemical assay, GST-tagged catalytic domain; top concentration tested […].
Chain of JAK2 (O60674 849-1124): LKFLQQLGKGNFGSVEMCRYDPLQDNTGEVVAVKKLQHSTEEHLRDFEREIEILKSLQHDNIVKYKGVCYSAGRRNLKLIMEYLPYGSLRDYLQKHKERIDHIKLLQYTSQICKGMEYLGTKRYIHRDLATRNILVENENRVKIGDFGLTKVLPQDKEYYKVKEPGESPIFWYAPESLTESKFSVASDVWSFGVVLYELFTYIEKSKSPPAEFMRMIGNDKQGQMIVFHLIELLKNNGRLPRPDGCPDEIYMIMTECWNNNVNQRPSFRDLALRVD
Text: as §1, §2

Chain of JAK1 (P23458 875-1153): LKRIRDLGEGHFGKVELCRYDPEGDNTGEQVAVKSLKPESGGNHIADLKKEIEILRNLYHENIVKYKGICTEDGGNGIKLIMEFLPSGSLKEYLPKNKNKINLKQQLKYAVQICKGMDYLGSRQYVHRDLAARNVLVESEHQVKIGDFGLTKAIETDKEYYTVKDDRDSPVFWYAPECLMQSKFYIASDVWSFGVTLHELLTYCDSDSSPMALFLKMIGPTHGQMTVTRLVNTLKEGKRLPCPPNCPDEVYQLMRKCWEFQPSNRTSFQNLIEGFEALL

`Cc1ccc(NC(=O)N2CC(CC#N)(n3cc(C(N)=O)c(Nc4ccc(S(C)(=O)=O)cc4)n3)C2)cc1` [Example 38-41, 1-{3-(cyanomethyl)-1-[(4-methylphenyl)carbamoyl]azetidin-3-yl}-3-{[4-(methylsulfonyl)phenyl]amino}-1H-pyrazole-4-carboxamide]: the results for the IC50 on JAK1 and against JAK2 were 13 nM and 175 nM, respectively.
For `CS(=O)(=O)c1ccc(Nc2nn(C3(CC#N)CN(C(=O)Nc4cc(F)ccc4F)C3)cc2C(N)=O)cc1` [Example 38-42, 1-{3-(cyanomethyl)-1-[(2,5-difluorophenyl)carbamoyl]azetidin-3-yl}-3-{[4-(methylsulfonyl)phenyl]amino}-1H-pyrazole-4-carboxamide] the same measures were 19 nM and 237 nM.
For `CCCCNC(=O)N1CC(CC#N)(n2cc(C(N)=O)c(Nc3ccc(S(C)(=O)=O)cc3)n2)C1` [Example 38-43, 1-[1-(butylcarbamoyl)-3-(cyanomethyl)azetidin-3-yl]-3-{[4-(methylsulfonyl)phenyl]amino}-1H-pyrazole-4-carboxamide] the same measures were 20 nM and 322 nM.
For the compound `CC(C)NC(=O)N1CCC(CC#N)(n2cc(C(N)=O)c(Nc3ccc(S(=O)(=O)C(F)(F)F)cc3)n2)CC1` [Example 38-44, 4-(4-carbamoyl-3-(4-(trifluoromethylsulfonyl)phenylamino)-1H-pyrazol-1-yl)-4-(cyanomethyl)-N-isopropylpiperidine-1-carboxamide], the 50% inhibitory concentration (IC50) turned out to be 0.1 nM at JAK1 and 2 nM at JAK2.
As to `N#CCC1(n2cc(C(N)=O)c(Nc3ccc(S(=O)(=O)C(F)(F)F)cc3)n2)CCN(C(=O)Nc2ccc(C#N)cc2)CC1` [Example 38-45, 4-(4-carbamoyl-3-(4-(trifluoromethylsulfonyl)phenylamino)-1H-pyrazol-1-yl)-4-(cyanomethyl)-N-(4-cyanophenyl)piperidine-1-carboxamide], the IC50 at JAK1 came out at 0.1 nM; on JAK2 it was 0.5 nM.
On the same counts, the results for `CC(C)NC(=O)N1CCC(CC#N)(n2cc(C(N)=O)c(Nc3ccccc3)n2)CC1` [Example 38-46, 4-[4-Carbamoyl-3-(phenylamino)-1H-pyrazol-1-yl]-4-(cyanomethyl)-N-(1-methylethyl)piperidine-1-carboxamide] are 2 nM and 59 nM.
On the same counts, the results for `N#CCC1(n2cc(C(N)=O)c(Nc3ccc(Cl)cc3)n2)CCC(N2CC(F)C2)CC1` (stereo not drawn) [Example 39-1, Cis or trans 3-((4-chlorophenyl)amino)-1-(1-(cyanomethyl)-4-(3-fluoroazetidin-1-yl)cyclohexyl)-1H-pyrazole-4-carboxamide] are 0.09 nM and 2 nM.
On the same counts, the results for `N#CCC1(n2cc(C(N)=O)c(Nc3ccc(F)cc3)n2)CCC(Nc2cccc(F)c2)CC1` (stereo not drawn) [Example 40-3, Cis or trans 1-{1-(cyanomethyl)-4-[(3-fluorophenyl)amino]cyclohexyl}-3-[(4-fluorophenyl)amino]-1H-pyrazole-4-carboxamide] are 119 nM and more than 1500 nM.
As to `N#CCC1(n2cc(C(N)=O)c(Nc3ccc(F)cc3)n2)CCC(NC2CCOCC2)CC1` (stereo not drawn) [Example 40-5, Cis or trans 1-[1-(cyanomethyl)-4-(tetrahydro-2H-pyran-4-ylamino)cyclohexyl]-3-[(4-fluorophenyl)amino]-1H-pyrazole-4-carboxamide], the IC50 is 449 nM at JAK1 and more than 1500 nM against JAK2.
For `N#CCC1(n2cc(C(N)=O)c(Nc3ccnc(F)c3)n2)CCC(Nc2cc(F)ccc2F)CC1` (stereo not drawn) [Example 40-10, Cis or trans 1-{1-(cyanomethyl)-4-[(2,5-difluorophenyl)amino]cyclohexyl}-3-[(2-fluoropyridin-4-yl)amino]-1H-pyrazole-4-carboxamide] the same measures were 14 nM and 355 nM.
On the same counts, the results for `N#CCC1(n2cc(C(N)=O)c(Nc3ccnc(F)c3)n2)CCC(Nc2ccccc2Cl)CC1` (stereo not drawn) [Example 40-11, Cis or trans 1-{4-[(2-chlorophenyl)amino]-1-(cyanomethyl)cyclohexyl}-3-[(2-fluoropyridin-4-yl)amino]-1H-pyrazole-4-carboxamide] are 0.2 nM and 7 nM.
Consider `N#CCC1(n2cc(C(N)=O)c(Nc3ccc(F)cc3)n2)CCC(Nc2ccccn2)CC1` (stereo not drawn) [Example 40-12, Cis or trans 1-[1-(cyanomethyl)-4-(pyridin-2-ylamino)cyclohexyl]-3-[(4-fluorophenyl)amino]-1H-pyrazole-4-carboxamide], for which the IC50 on JAK1 was determined as 2 nM; against JAK2 it was 73 nM.
For `CN(c1ccccc1)C1CCC(CC#N)(n2cc(C(N)=O)c(Nc3ccnc(F)c3)n2)CC1` (stereo not drawn) [Example 40-15, Cis or trans 1-{1-(cyanomethyl)-4-[methyl(phenyl)amino]cyclohexyl}-3-[(2-fluoropyridin-4-yl)amino]-1H-pyrazole-4-carboxamide] the same measures were 0.08 nM and 2 nM.
On the same counts, the results for `N#CCC1(n2cc(C(N)=O)c(Nc3ccc(F)cc3)n2)CCC(Nc2cccc(F)c2)CC1` (stereo not drawn) [Example 40-16, Cis or trans 1-{1-(cyanomethyl)-4-[(3-fluorophenyl)amino]cyclohexyl}-3-[(4-fluorophenyl)amino]-1H-pyrazole-4-carboxamide] are 0.3 nM and 18 nM.
For `N#CCC1(n2cc(C(N)=O)c(Nc3ccc(F)cc3)n2)CCC(Nc2ccc(F)cc2)CC1` (stereo not drawn) [Example 40-18, Cis or trans 1-{1-(cyanomethyl)-4-[(4-fluorophenyl)amino]cyclohexyl}-3-[(4-fluorophenyl)amino]-1H-pyrazole-4-carboxamide] the same measures were 235 nM and more than 1500 nM.
As to `N#CCC1(n2cc(C(N)=O)c(Nc3ccc(F)cc3)n2)CCC(Nc2ccc(F)cc2)CC1` (stereo not drawn) [Example 40-19, Cis or trans 1-{1-(cyanomethyl)-4-[(4-fluorophenyl)amino]cyclohexyl}-3-[(4-fluorophenyl)amino]-1H-pyrazole-4-carboxamide], the IC50 at JAK1 is 0.3 nM; at JAK2, 10 nM.
As for `N#CCC1(n2cc(C(N)=O)c(Nc3ccnc(F)c3)n2)CCC(Nc2ccc(F)c(F)c2)CC1` (stereo not drawn) [Example 40-20, Cis or trans 1-{1-(cyanomethyl)-4-[(3,4-difluorophenyl)amino]cyclohexyl}-3-[(2-fluoropyridin-4-yl)amino]-1H-pyrazole-4-carboxamide], the 50% inhibitory concentration (IC50) at JAK1 is 1 nM; against JAK2, 43 nM.
For `N#CCC1(n2cc(C(N)=O)c(Nc3ccc(F)cc3)n2)CCC(N2CCc3ccccc32)CC1` (stereo not drawn) [Example 40-21, Cis or trans 1-[1-(cyanomethyl)-4-(2,3-dihydro-1H-indol-1-yl)cyclohexyl]-3-[(4-fluorophenyl)amino]-1H-pyrazole-4-carboxamide] the same measures were 171 nM and more than 1500 nM.
On the same counts, the results for `N#CCC1(n2cc(C(N)=O)c(Nc3ccnc(F)c3)n2)CCC(NC2CCCCC2)CC1` (stereo not drawn) [Example 40-23, Cis or trans 1-[1-(cyanomethyl)-4-(cyclohexylamino)cyclohexyl]-3-[(2-fluoropyridin-4-yl)amino]-1H-pyrazole-4-carboxamide] are 2 nM and 237 nM.
Consider `N#CCC1(n2cc(C(N)=O)c(Nc3ccnc(F)c3)n2)CCC(Nc2ccccc2Cl)CC1` (stereo not drawn) [Example 40-25, Cis or trans 1-{4-[(2-chlorophenyl)amino]-1-(cyanomethyl)cyclohexyl}-3-[(2-fluoropyridin-4-yl)amino]-1H-pyrazole-4-carboxamide], for which the IC50 at JAK1 came out at 63 nM; on JAK2, 940 nM.
Take `N#CCC1(n2cc(C(N)=O)c(Nc3ccc(S(=O)(=O)C(F)F)cc3)n2)CCC(NC2CCOCC2)CC1` (stereo not drawn) [Example 40-26, Cis or trans 1-[1-(cyanomethyl)-4-(tetrahydro-2H-pyran-4-ylamino)cyclohexyl]-3-({4-[(difluoromethyl)sulfonyl]phenyl}amino)-1H-pyrazole-4-carboxamide]: the IC50 on JAK1 is 0.08 nM; at JAK2, 5 nM.
For `N#CCC1(n2cc(C(N)=O)c(Nc3ccc(F)cc3)n2)CCC(N2CCC(O)CC2)CC1` (stereo not drawn) [Example 40-27, Cis or trans 1-[1-(cyanomethyl)-4-(4-hydroxypiperidin-1-yl)cyclohexyl]-3-[(4-fluorophenyl)amino]-1H-pyrazole-4-carboxamide] the same measures were 8 nM and 273 nM.
For `N#CCC1(n2cc(C(N)=O)c(Nc3ccnc(F)c3)n2)CCC(Nc2cccc(Cl)c2)CC1` (stereo not drawn) [Example 40-29, Cis or trans 1-{4-[(3-chlorophenyl)amino]-1-(cyanomethyl)cyclohexyl}-3-[(2-fluoropyridin-4-yl)amino]-1H-pyrazole-4-carboxamide] the same measures were 0.07 nM and 4 nM.
For `N#CCC1(n2cc(C(N)=O)c(Nc3ccnc(F)c3)n2)CCC(N2CCc3ccccc32)CC1` (stereo not drawn) [Example 40-30, Cis or trans 1-[1-(cyanomethyl)-4-(2,3-dihydro-1H-indol-1-yl)cyclohexyl]-3-[(2-fluoropyridin-4-yl)amino]-1H-pyrazole-4-carboxamide] the same measures were 326 nM and more than 1500 nM.
As for `N#CCC1(n2cc(C(N)=O)c(Nc3ccc(S(=O)(=O)C(F)F)cc3)n2)CCC(N2CCC(F)(F)CC2)CC1` (stereo not drawn) [Example 40-31, Cis or trans 1-[1-(cyanomethyl)-4-(4,4-difluoropiperidin-1-yl)cyclohexyl]-3-({4-[(difluoromethyl)sulfonyl]phenyl}amino)-1H-pyrazole-4-carboxamide], the IC50 at JAK1 worked out at 0.1 nM; on JAK2 it was 2 nM.
With `N#CCC1(n2cc(C(N)=O)c(Nc3ccnc(F)c3)n2)CCC(Nc2ccc(F)cc2F)CC1` (stereo not drawn) [Example 40-33, Cis or trans 1-{1-(cyanomethyl)-4-[(2,4-difluorophenyl)amino]cyclohexyl}-3-[(2-fluoropyridin-4-yl)amino]-1H-pyrazole-4-carboxamide], the IC50 on JAK1 stood at 0.03 nM; at JAK2, 0.8 nM.

Source of the values: US9328099B2, “Cyanomethylpyrazole carboxamides as janus kinase inhibitors” (Merck Sharp & Dohme Corp., priority 2011, dated 2016).
